Assays:
Assay in all cases: MIB/MS kinome profiling of inhibitor-treated OVSAHO cells
Format in all cases: cell-based
Conditions in all cases: 2 μM, 4 hours
[1] = target: T1, CDK8 (Homo sapiens, UniProt P49336)
T1 construct: endogenous in cells; host or cells: OVSAHO
Experimental: (§1) OVSAHO cells were treated with 2 μM of inhibitor for 4 hours and analyzed by MIB/MS. Scatterplot depicts difference in kinase MIB-binding of drug treated relative to control DMSO as determined by Students T-test.
(§2) MIB-based kinome profiling was performed on several of these molecules in HGSOC cells to determine kinome-wide inhibition profiles.
(§3) Experiments using MIB/MS were performed as previously described (Duncan et al., Cell, 2012, 149, 307-321; and Kurimchak et al., Cell Reports, 2016, 16, 1273-1286). Briefly, cells or tumors were lysed on ice in buffer containing 50 mM HEPES (pH 7.5), 0.5% Triton X-100, 150 mM NaCl, 1 mM EDTA, 1 mM EGTA, 10 mM sodium fluoride, 2.5 mM sodium orthovanadate, 1× protease inhibitor cocktail (Roche), and 1% each of phosphatase inhibitor cocktails 2 and 3 (Sigma). Particulate was removed by centrifugation of lysates at 13,000 rpm for 10 minutes at 4° C. and filtration through 0.2 μm syringe filters. Protein concentrations were determined by BCA analysis (Thermo). To compare kinome signatures within and across such large sample sizes, a super-SILAC method was designed (Neubert et al., Nat. Meth., 2010, 7, 361-362) consisting of a cocktail of cancer cell lines that encompasses the activity of the “cancer kinome” to be used as a control for individual samples. Five cancer cell lines were selected from the NCI-60 panel (UACC257, MOLT4, COL0205, ACHN and PC3) that differed in their origin, gene expression patterns and mutation status. The cancer cell lines were labeled using SILAC and mixed equally providing a diverse SILAC ([^13C6,^15N4] arginine (Arg^10) and […] (Lys^8)) heavy kinome reference standard (HKS) to be used repeatedly in kinome profiling assays. An equal amount of the HKS was added to the non-labeled sample (cell, tumor or normal tissue) providing a quantitative strategy to compare kinome activity/levels across samples, amongst treatments and, importantly, across time. Endogenous kinases were isolated by flowing lysates over kinase inhibitor-conjugated Sepharose beads (purvalanol B, VI16832, PP58 and CTx-0294885 beads were used) in 10 ml gravity-flow columns. After 2×10 ml column washes in high-salt buffer and 1×10 ml wash in low-salt buffer (containing 50 mM HEPES (pH 7.5), 0.5% Triton X-100, 1 mM EDTA, 1 mM EGTA, and 10 mM sodium fluoride, and 1M NaCl or 150 mM NaCl, respectively), retained kinases were eluted from the column by boiling in 2×500 μL of 0.5% SDS, 0.1 M TrisHCl (pH 6.8), and 1% 2-mercaptoethanol. Eluted peptides were reduced by incubation with 5 mM DTT at 60° C. for 25 minutes, alkylated with 20 mM iodoacetamide at room temperature for 30 minutes in the dark and alkylation was quenched with DTT. Samples were concentrated to approximately 100 μL with Millipore 10 kD cutoff spin concentrators. Detergent was removed by chloroform/methanol extraction, and the protein pellet was resuspended in 100 mM ammonium bicarbonate and digested with sequencing-grade modified trypsin (Promega) overnight at 37° C. […]
(§4) Proteolytic peptides were resuspended in 0.1% formic acid and separated with a Thermo RSLC Ultimate 3000 on a Thermo Easy-Spray C18 PepMap 75 μm×50 cm C-18 2 μm column with a 240 minute gradient of 4-25% acetonitrile with 0.1% formic acid at 300 nL/min and 50° C. Eluted peptides were analyzed by a Thermo Q Exactive plus mass spectrometer utilizing a top 15 methodology in which the 15 most intense peptide precursor ions were subjected to fragmentation. […]

[2] = target: T2, PRCKD (Homo sapiens, UniProt Q05655)
T2 construct: endogenous in cells; host or cells: OVSAHO
T2 sequence (Q05655 whole entry): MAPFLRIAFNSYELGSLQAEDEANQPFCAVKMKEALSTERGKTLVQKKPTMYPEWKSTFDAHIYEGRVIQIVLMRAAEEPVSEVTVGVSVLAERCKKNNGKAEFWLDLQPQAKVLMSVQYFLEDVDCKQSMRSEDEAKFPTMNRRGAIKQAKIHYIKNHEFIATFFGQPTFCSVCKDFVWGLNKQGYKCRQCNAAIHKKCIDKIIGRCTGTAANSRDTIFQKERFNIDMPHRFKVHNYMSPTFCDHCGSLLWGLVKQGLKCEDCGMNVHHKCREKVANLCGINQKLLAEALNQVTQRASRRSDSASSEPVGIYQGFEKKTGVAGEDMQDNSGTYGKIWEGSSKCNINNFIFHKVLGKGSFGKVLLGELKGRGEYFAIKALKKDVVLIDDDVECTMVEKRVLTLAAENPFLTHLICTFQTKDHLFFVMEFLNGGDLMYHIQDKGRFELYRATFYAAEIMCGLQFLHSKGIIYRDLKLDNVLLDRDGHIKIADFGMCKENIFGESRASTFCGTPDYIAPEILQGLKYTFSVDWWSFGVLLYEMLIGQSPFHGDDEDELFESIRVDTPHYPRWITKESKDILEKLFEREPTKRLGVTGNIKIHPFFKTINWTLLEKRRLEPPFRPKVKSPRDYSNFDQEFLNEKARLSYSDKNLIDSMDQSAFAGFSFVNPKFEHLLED
Experimental: as §1, §2, §3, §4

[3] = target: T3, AAK1 (Homo sapiens, UniProt Q2M2I8)
T3 construct: endogenous in cells; host or cells: OVSAHO
T3 sequence (Q2M2I8 whole entry): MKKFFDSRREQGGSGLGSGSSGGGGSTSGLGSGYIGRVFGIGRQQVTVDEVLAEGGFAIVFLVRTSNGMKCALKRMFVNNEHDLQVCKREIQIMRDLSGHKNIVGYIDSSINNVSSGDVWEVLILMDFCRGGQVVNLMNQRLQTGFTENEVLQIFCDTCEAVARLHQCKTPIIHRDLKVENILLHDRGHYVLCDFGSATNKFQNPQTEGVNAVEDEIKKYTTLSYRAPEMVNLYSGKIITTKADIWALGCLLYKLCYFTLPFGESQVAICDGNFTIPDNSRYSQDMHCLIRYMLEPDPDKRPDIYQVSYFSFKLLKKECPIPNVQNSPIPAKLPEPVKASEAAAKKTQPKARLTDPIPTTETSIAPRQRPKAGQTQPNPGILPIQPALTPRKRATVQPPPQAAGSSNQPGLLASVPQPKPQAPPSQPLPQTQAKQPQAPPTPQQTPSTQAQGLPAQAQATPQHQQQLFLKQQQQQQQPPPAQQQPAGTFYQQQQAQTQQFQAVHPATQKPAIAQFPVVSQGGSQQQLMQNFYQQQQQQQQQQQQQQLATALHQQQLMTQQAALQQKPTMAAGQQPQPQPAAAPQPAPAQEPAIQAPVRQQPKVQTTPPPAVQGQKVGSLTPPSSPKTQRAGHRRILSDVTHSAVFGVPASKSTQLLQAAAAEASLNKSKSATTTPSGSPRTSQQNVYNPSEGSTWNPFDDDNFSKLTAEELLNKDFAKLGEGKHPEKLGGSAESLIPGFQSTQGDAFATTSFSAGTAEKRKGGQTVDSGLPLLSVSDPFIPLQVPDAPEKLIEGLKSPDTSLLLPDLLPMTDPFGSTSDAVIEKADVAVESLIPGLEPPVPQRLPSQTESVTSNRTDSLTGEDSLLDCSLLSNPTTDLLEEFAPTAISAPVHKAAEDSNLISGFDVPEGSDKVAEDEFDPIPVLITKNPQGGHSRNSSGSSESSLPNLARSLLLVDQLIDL
Experimental: as §1, §2, §3, §4

[4] = target: T4, MAP3K12 (Homo sapiens, UniProt Q12852)
T4 construct: endogenous in cells; host or cells: OVSAHO
T4 sequence (Q12852 1-859): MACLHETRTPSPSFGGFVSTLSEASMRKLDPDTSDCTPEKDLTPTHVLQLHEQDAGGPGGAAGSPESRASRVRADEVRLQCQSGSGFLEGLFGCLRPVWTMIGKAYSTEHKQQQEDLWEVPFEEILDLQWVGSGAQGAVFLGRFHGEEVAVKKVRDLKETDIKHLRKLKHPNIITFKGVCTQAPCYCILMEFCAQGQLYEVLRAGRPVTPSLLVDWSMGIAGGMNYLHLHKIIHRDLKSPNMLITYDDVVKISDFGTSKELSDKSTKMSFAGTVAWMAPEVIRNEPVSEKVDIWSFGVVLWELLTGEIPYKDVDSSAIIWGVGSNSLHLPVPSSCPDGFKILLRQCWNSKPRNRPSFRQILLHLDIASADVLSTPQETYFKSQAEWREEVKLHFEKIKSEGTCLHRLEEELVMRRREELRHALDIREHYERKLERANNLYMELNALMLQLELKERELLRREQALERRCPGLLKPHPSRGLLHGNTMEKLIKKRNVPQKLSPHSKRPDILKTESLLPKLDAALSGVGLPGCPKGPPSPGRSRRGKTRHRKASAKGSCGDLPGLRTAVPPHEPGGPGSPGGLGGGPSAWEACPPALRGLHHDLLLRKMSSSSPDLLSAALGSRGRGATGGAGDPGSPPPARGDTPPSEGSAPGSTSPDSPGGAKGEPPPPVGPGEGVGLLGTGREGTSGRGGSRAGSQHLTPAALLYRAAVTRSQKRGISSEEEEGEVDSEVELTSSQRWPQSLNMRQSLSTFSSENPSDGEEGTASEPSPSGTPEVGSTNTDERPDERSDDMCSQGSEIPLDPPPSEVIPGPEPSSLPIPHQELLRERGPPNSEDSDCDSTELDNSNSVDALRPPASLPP
Experimental: as §1, §2, §3, §4

[5] = target: T5, CLK2 (Homo sapiens, UniProt P49760)
T5 construct: endogenous in cells; host or cells: OVSAHO
T5 sequence (P49760 whole entry): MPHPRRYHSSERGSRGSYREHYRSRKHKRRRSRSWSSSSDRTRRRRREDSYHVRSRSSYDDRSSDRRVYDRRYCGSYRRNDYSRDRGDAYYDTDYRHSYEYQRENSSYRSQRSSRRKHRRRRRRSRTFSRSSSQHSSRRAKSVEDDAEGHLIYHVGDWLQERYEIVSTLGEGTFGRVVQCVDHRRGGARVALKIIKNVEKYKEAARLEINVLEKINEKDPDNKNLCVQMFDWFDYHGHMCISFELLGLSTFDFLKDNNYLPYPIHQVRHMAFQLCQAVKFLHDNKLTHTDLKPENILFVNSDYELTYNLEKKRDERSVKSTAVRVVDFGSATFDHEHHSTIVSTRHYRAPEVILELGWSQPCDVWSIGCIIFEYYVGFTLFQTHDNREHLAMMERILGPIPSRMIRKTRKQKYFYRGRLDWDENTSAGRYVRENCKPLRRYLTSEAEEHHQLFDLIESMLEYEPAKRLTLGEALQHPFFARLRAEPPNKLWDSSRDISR
Experimental: as §1, §2, §3, §4

T1 sequence (P49336 whole entry): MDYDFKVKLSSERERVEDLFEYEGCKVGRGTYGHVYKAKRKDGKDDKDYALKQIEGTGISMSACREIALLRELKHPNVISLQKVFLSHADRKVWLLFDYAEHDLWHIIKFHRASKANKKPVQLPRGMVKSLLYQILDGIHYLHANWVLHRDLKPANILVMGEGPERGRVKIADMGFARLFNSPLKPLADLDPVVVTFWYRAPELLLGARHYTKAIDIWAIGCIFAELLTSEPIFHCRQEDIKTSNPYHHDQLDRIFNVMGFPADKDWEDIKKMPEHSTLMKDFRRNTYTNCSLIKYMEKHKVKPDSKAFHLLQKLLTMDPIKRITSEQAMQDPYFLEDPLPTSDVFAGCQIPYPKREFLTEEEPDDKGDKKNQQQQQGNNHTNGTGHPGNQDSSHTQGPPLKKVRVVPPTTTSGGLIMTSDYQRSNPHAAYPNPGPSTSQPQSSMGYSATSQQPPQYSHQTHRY
T1 sequence (P24863 whole entry partner): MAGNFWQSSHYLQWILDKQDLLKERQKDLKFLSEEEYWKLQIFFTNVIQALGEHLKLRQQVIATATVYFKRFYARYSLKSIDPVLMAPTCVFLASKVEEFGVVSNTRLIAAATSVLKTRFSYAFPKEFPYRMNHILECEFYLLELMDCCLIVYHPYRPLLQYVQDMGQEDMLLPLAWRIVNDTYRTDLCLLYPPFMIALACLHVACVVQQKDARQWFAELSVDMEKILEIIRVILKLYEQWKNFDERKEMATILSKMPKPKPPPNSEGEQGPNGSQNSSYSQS

Cc1[nH]nc2ccc(-c3cncc(OC[C@@H](N)Cc4ccccc4)c3)cc12 [A-674563]
inhibited: MIB-binding of CDK8 [1] | MIB-binding of PRCKD [2] | MIB-binding of AAK1 [3] | MIB-binding of MAP3K12 [4] | MIB-binding of CLK2 [5]

— patent US20210318318A1, “Kinase Activity In Tumors” (Institute For Cancer Research d/b/a The Research Institute …, priority 2018, published 2021)
